Patent US11999727B2 (Tango Therapeutics, Inc., priority 2020, dated 2024)

What was measured:
[1] = test system: HAP1 MTAP-intact cell line; test: SDMA in-cell western assay, HAP1 MTAP-intact; format: cell-based; settings: Homo sapiens, HAP1, SDMA in-cell western, HAP1 MTAP-intact; read-out: MTAP HAP1 intact IC50
Summary of the method: (§1)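 Readout: in-cell western detection of SDMA. Cells: HAP1 expressing endogenous MTAP and an MTAP-null HAP1 counterpart. Output: IC50.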

[2] = target: T1, PRMT5 (Homo sapiens, UniProt O14744); test: PRMT5 biochemical IC50 assay with no cofactor; settings: PRMT5, no cofactor; read-out: No Cofactor/rel IC50
T1 construct: purchased Viva (custom protein)
Description: Table 1 indicates IC50 values (μM) against PRMT5 for exemplary compounds in the presence of SAM as cofactor, with no cofactor, and with MTA as cofactor, respectively (columns 4-6). […] Ki values can be calculated from the IC50 values as described in the Examples section. As detailed in the Examples section, for the assay performed in the presence of SAM, IC50=Ki×1.5 (Ki=IC50/1.5).

[3] = target: T1, PRMT5; test: PRMT5 biochemical IC50 assay with MTA as cofactor; settings: PRMT5, MTA as cofactor; read-out: MTA IC50
[4] = test system: HAP1 MTAP-deleted cell line; test: Viability assay, MTAP-deleted cell line; format: cell-based; settings: Homo sapiens, HAP1, viability assay, MTAP-deleted cell line; read-out: HAP1 MTAP deleted viability
Description: Table 1 additionally indicates IC50 values in a viability assay for the MTAP-deleted cell line (column 10), indicating the effect of treatment with compound on cell survival.

[5] = test system: HAP1 MTAP-deleted cell line; test: SDMA in-cell western assay, HAP1 MTAP-deleted; format: cell-based; settings: for IC50: Homo sapiens, HAP1, SDMA in-cell western, HAP1 MTAP-deleted, read-out: HAP1 MTAP deleted IC50; for MTAP intact/deleted ratio: IC50 ratio HAP1 MTAP-intact / HAP1 MTAP-deleted, SDMA in-cell western
Summary of the method: as §1

[6] = target: T1, PRMT5; test: PRMT5 biochemical IC50 assay with SAM as cofactor; settings: PRMT5, SAM as cofactor; read-out: SAM IC50

T1 sequence (O14744 whole entry): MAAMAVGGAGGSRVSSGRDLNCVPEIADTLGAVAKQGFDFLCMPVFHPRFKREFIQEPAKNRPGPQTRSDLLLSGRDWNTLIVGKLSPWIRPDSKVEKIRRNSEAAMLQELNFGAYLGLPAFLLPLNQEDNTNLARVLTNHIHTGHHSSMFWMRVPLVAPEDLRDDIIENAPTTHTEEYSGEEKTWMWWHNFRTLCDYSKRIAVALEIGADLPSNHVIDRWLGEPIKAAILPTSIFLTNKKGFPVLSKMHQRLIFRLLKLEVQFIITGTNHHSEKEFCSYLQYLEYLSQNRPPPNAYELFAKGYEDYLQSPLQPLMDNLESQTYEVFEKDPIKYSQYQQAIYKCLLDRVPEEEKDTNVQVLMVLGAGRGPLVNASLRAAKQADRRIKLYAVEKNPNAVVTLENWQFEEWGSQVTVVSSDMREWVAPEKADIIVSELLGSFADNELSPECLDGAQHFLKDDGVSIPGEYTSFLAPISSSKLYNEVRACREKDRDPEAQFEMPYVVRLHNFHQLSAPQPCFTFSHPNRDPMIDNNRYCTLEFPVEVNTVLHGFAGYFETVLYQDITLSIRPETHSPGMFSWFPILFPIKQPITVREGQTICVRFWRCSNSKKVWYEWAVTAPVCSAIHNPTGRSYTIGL
T1 sequence (Q9BQA1 whole entry partner): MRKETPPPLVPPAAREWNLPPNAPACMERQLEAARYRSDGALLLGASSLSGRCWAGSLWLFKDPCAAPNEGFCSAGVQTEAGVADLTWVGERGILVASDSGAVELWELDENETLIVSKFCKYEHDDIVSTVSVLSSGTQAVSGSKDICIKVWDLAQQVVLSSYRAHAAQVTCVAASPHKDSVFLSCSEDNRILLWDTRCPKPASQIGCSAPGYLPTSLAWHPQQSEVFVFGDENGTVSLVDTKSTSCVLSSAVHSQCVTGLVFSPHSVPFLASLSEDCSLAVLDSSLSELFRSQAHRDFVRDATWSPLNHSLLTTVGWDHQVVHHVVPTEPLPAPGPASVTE

| IC50 [1] [nM] | IC50 [2] [nM] | IC50 [3] [nM] | IC50 [5] [nM] | IC50 [6] [nM] | SMILES | IC50 [4] [nM] | MTAP intact/deleted ratio [5] |
| --- | --- | --- | --- | --- | --- | --- | --- |
| > 1000 | > 500 | > 500 | > 1000 | > 500 | COc1ncc(NC(=O)C(=O)N2C[C@H](C)CC[C@H]2c2ccc3[nH]ncc3c2)cc1C(N)=O (single isomer, unassigned) [Compound 465] | > 10000 | B (an IC50 ratio greater than or equal to 3 fold but lower than 10 fold) |
| > 1000 | > 500 | > 500 | > 1000 | > 500 | C[C@H]1CC[C@H](c2csc3ccccc23)N(C(=O)C(=O)Nc2cncc(C(N)=O)c2)C1 (single isomer, unassigned) [Compound 466] | > 10000 | C (an IC50 ratio of less than 3 fold) |
| > 1000 | > 500 | > 500 |  | > 500 | CNc1ccc([C@H]2CC[C@@H](C)CN2C(=O)C(=O)Nc2cnc(OC)c(C(N)=O)c2)cn1 (single isomer, unassigned) [Compound 467] | > 10000 | C (an IC50 ratio of less than 3 fold) |
| > 1000 | > 500 | > 500 | > 1000 | > 500 | COc1ncc(NC(=O)C(=O)N2C[C@H](C)CC[C@H]2c2ccc(N)nc2)cc1C(N)=O (single isomer, unassigned) [Compound 471] | > 10000 | C (an IC50 ratio of less than 3 fold) |
| > 1000 | > 500 | > 500 | > 1000 | > 500 | Cc1cc(NC(=O)C(=O)N2C[C@@H](C)CC[C@@H]2c2ccc(F)c(F)c2)cnc1N (single isomer, unassigned) [Compound 472] | > 10000 | C (an IC50 ratio of less than 3 fold) |
| > 1000 | > 500 | > 500 | > 1000 | > 500 | C[C@@H]1CC[C@@H](c2cc(F)c(F)c(F)c2)N(C(=O)C(=O)Nc2cncc(C(N)=O)c2)C1 (single isomer, unassigned) [Compound 476] | > 10000 | C (an IC50 ratio of less than 3 fold) |
| > 1000 | 50 to 500 | < 50 | < 100 | 50 to 500 | Cc1ccc([C@H]2CC[C@H](C)CN2C(=O)C(=O)Nc2cncc(C(N)=O)c2)cc1Cl (single isomer, unassigned) [Compound 484] | 1000 to 10000 | A (an IC50 ratio greater than or equal to 10 fold) |
| > 1000 | > 500 | > 500 | > 1000 | > 500 | C[C@@H]1CC[C@@H](C2CCC(F)(F)CC2)N(C(=O)C(=O)Nc2cncc(C(N)=O)c2)C1 (single isomer, unassigned) [Compound 486] | > 10000 | C (an IC50 ratio of less than 3 fold) |

More lines, now with the values behind:

| SMILES | IC50 [1] [nM] | IC50 [2] [nM] | IC50 [3] [nM] | IC50 [5] [nM] | IC50 [6] [nM] | IC50 [4] [nM] | MTAP intact/deleted ratio [5] |
| --- | --- | --- | --- | --- | --- | --- | --- |
| C[C@H]1CC[C@H](c2ccc(NS(C)(=O)=O)cc2)N(C(=O)C(=O)Nc2cncc(C(N)=O)c2)C1 (single isomer, unassigned) [Compound 462] | > 1000 | 50 to 500 | < 50 | 100 to 1000 | 50 to 500 | 1000 to 10000 | A (an IC50 ratio greater than or equal to 10 fold) |
| COc1ncc(NC(=O)C(=O)N2C[C@@H](C)CC[C@@H]2c2ccc3[nH]ncc3c2)cc1C(N)=O (single isomer, unassigned) [Compound 464] | 100 to 1000 | < 50 | < 50 | < 100 | 50 to 500 | < 1000 | A (an IC50 ratio greater than or equal to 10 fold) |
| CNc1ccc([C@@H]2CC[C@H](C)CN2C(=O)C(=O)Nc2cnc(OC)c(C(N)=O)c2)cn1 (single isomer, unassigned) [Compound 468] | > 1000 | > 500 | > 500 | > 1000 | > 500 | > 10000 | C (an IC50 ratio of less than 3 fold) |
| C[C@@H]1CC[C@@H](c2ccc(NS(C)(=O)=O)cc2)N(C(=O)C(=O)Nc2cncc(C(N)=O)c2)C1 (single isomer, unassigned) [Compound 469] | > 1000 | > 500 | > 500 | > 1000 | > 500 | > 10000 | C (an IC50 ratio of less than 3 fold) |
| C[C@@H]1CN(C(=O)C(=O)Nc2cncc(C(N)=O)c2)[C@@H](c2ccccc2)CC1(F)F (single isomer, unassigned) [Compound 473] | > 1000 | > 500 | > 500 | > 1000 | > 500 | > 10000 | C (an IC50 ratio of less than 3 fold) |
| C[C@@H]1CC[C@@H](c2ccc(F)c(F)c2)N(C(=O)C(=O)Nc2cncc(C(N)=O)c2)C1 (single isomer, unassigned) [Compound 474] | > 1000 | > 500 | > 500 | > 1000 | > 500 | > 10000 | C (an IC50 ratio of less than 3 fold) |
| C[C@H]1CC[C@H](c2ccc(F)c(F)c2)N(C(=O)C(=O)Nc2cncc(C(N)=O)c2)C1 (single isomer, unassigned) [Compound 475] | > 1000 | 50 to 500 | < 50 | 100 to 1000 | 50 to 500 | 1000 to 10000 | A (an IC50 ratio greater than or equal to 10 fold) |
| C[C@H]1CC[C@H](c2cc(F)c(F)c(F)c2)N(C(=O)C(=O)Nc2cncc(C(N)=O)c2)C1 (single isomer, unassigned) [Compound 477] | > 1000 | 50 to 500 | < 50 | < 100 | 50 to 500 | 1000 to 10000 | A (an IC50 ratio greater than or equal to 10 fold) |
| Cc1cc(NC(=O)C(=O)N2C[C@H](C)CC[C@H]2c2cc(F)c(F)c(F)c2)cnc1N (single isomer, unassigned) [Compound 478] | > 1000 | 50 to 500 | < 50 | 100 to 1000 | 50 to 500 | 1000 to 10000 | A (an IC50 ratio greater than or equal to 10 fold) |
| C[C@@H]1CC[C@@H](c2ccccc2)N(C(=O)C(=O)Nc2cncc(C(N)=O)c2)[C@H]1C (single isomer, unassigned) [Compound 482] | > 1000 | 50 to 500 | < 50 | < 100 | 50 to 500 | < 1000 | A (an IC50 ratio greater than or equal to 10 fold) |
| C[C@@H]1[C@@H](C)CC[C@H](c2ccccc2)N1C(=O)C(=O)Nc1cncc(C(N)=O)c1 (single isomer, unassigned) [Compound 483] | > 1000 | > 500 | > 500 | > 1000 | > 500 | > 10000 | C (an IC50 ratio of less than 3 fold) |
| Cc1ccc([C@@H]2CC[C@@H](C)CN2C(=O)C(=O)Nc2cncc(C(N)=O)c2)cc1Cl (single isomer, unassigned) [Compound 485] | > 1000 | > 500 | > 500 | > 1000 | > 500 | > 10000 | C (an IC50 ratio of less than 3 fold) |
| Cc1cc(NC(=O)C(=O)N2C[C@@H](C)CC[C@@H]2c2cc(F)c(F)c(F)c2)cnc1N (single isomer, unassigned) [Compound 487] | > 1000 | > 500 | > 500 | > 1000 | > 500 | > 10000 | C (an IC50 ratio of less than 3 fold) |
| C[C@H]1CC[C@H](c2ccc(Cl)c(Cl)c2)N(C(=O)C(=O)Nc2cncc(C(N)=O)c2)C1 (single isomer, unassigned) [Compound 488] | > 1000 | 50 to 500 | < 50 | 100 to 1000 | 50 to 500 | 1000 to 10000 | A (an IC50 ratio greater than or equal to 10 fold) |
| C[C@@H]1CC[C@@H](c2ccc(Cl)c(Cl)c2)N(C(=O)C(=O)Nc2cncc(C(N)=O)c2)C1 (single isomer, unassigned) [Compound 489] | > 1000 | > 500 | > 500 | > 1000 | > 500 | > 10000 | C (an IC50 ratio of less than 3 fold) |
